Experimental data taken from patent publication US20100280125A1, “MEDICINAL AGENT” (priority 2004, published 2010).

Key:
[1] = system: human malignant melanoma A 375; assay: replication of melanoma cells in test glasses; type: cell-based; settings: a week at 37° C. in the dark, in comparison to physiological salt solution
Experimental: In addition, a third control group of test glasses (6 glasses) was formed with the same cancer cell pool and fibroblasts, into which adriamycin and cyclophosphan in the same dilution was introduced, as well as a corresponding test glass group with a physiological salt solution.
After thermostatization of the above-mentioned test glasses for a week at 37° C. (in the dark), the contents were analyzed.

melanoma 16 = type: in vivo, mice; settings: for mice survived as far as the 36th day: control sub groups of 10 mice, 5 mg in water solution as a drink; for findings during the dissection: first and second sub group of the control group, 5 mg as a drink
Experimental: B57 type mice in the test and control group (60 mice each) were injected with melanoma 16. The test group were divided into 6 sub groups and the control group was divided into 3 sub groups, each with 10 mice.

[2] = system: cancer of the right ovary (recidiv); assay: treatment of patient I, recidiv of ovary cancer; type: in vivo, human
Experimental: Exstirpation of the uterus and the surrounding area on account of cancer of the right ovary was performed on patient I who was […] and had visited the doctor in November 2002. The tomogram that was dated 28 Aug.
The patient was treated with an enema of the rectum: over five days once a day, after five procedures once every other day and thereafter every third day for 15 enemas. They were treated with a single dose of 20 mg medicinal agent (B.V.2) per 15-20 ml water, diluted in 2 ml 70% ethyl alcohol.

papillary thyroid cancer = assay: treatment of patient R, papillary thyroid cancer; type: in vivo, human
Experimental: The patient was treated with the medicinal agent (B.V.2) for 2 weeks; one gelatine capsule two times a day with 20 mg medicinal agent perorally after food and enemas in a single dose of 100 ml solution, comprising 50 mg medicinal agent powder, diluted in 2 ml 70% ethyl alcohol and dissolved in 100 ml water solution with 0.9% NaCl.

[3] = 3 hours after taking the dose, over 7 days

| Molecule | suppression of the replication of the melanoma cells ([1]; dilution of 10^−7 mmol/l) [%] | suppression of the replication of the melanoma cells ([1]; dilution of 10^−9 mmol/l) [%] | mice survived as far as the 36th day (melanoma 16) [mice] | findings during the dissection (melanoma 16) | growth in control investigation using ultrasound ([2]; 2 Mar. 2004) | erythrocytes ([2]; after the treatment, before 2.5 million) [million] | thrombocytes ([2]; after the treatment, before 110,000) | leucocytes ([2]; after the treatment, before up to 10,000) | duration of the dissymmetric effect (papillary thyroid cancer) [h] | ultrasound investigation after the treatment (papillary thyroid cancer; 2 weeks, capsules 20 mg two times a day and enemas 50 mg, growth 5×3×1.7 cm before) | temperature on the left side of the body (dissymmetric effect) (papillary thyroid cancer; [3]) | temperature on the right side of the body (dissymmetric effect) (papillary thyroid cancer; [3]) |
| --- | --- | --- | --- | --- | --- | --- | --- | --- | --- | --- | --- | --- |
| O=P1(N(CCCl)CCCl)NCCCO1 (stereo not shown) [cyclophosphan] | 55 | 35 | 5 | lung and liver injuries |  |  |  |  |  |  |  |  |
| hexamethyl pararosanilin chloride [methyl violet 10B] |  |  |  |  | no longer to be found | 5.5 | 300,000 | 9,000 | 1.0 to 1.5 | a primary growth and no metastases | 37.3-38.6 °C | 35.4-36.9 °C |
| COc1cccc2c1C(=O)c1c(O)c3c(c(O)c1C2=O)C[C@@](O)(C(=O)CO)C[C@@H]3O[C@H]1C[C@H](N)[C@H](O)[C@H](C)O1 [adriamycin] | 42 | 30 | 2 | lung and liver injuries |  |  |  |  |  |  |  |  |
